Data on two compounds can be found in PMC5458555, “Conformational dynamics of dynamin-like MxA revealed by single-molecule FRET” (Nature Communications, 2017).

Where a chain is given by its changes, count along the chain named.

In test [1] the target is T1, MxA^MO2 (Homo sapiens, UniProt P20591, A149C/C322K/C336Q/C42S/C52S/M527D/S634C).
T1 construct: gene MX1; monomeric full-length-type MxA (M527D) with solvent-exposed cysteines replaced; N-terminal His6-PreScission tag cut, E. coli Rosetta (DE3); SEC peak ~70 kDa
T1 sequence (P20591 1-662 C42S/C52S/A149C/C322K/C336Q/M527D/S634C): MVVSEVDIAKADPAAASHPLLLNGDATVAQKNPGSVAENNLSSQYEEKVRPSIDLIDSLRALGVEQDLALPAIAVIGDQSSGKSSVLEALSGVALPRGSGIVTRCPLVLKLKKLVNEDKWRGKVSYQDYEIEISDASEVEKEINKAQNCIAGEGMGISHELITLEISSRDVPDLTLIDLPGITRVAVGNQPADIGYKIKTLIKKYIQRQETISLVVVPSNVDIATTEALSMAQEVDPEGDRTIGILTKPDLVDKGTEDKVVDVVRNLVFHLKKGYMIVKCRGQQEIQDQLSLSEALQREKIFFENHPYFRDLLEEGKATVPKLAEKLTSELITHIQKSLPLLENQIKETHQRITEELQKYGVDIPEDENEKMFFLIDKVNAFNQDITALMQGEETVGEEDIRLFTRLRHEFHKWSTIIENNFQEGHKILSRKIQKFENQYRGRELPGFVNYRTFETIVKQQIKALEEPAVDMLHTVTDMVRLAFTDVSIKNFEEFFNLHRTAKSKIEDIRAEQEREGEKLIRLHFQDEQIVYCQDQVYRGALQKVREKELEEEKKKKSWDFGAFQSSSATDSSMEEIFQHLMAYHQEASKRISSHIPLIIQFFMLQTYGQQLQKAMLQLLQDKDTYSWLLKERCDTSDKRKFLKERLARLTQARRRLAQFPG
In words: isothermal titration calorimetry. The format is binding. The settings on record: read-out: equilibrium dissociation constant. On the procedure:
(§1) isothermal titration calorimetry on MxA^MO2 | The equilibrium dissociation constants for MxA^MO2-AS and MxA^MO2-RR to GDP and GMPPCP were determined

For test [2], the target named is T2, MxA^MO2 (Homo sapiens, UniProt P20591, C322K/C336Q/C42S/C52S/M527D/R352C/R500C).
T2 construct: gene MX1; monomeric full-length-type MxA (M527D) with solvent-exposed cysteines replaced; N-terminal His6-PreScission tag cut, E. coli Rosetta (DE3); SEC peak ~70 kDa
T2 sequence (P20591 1-662 C42S/C52S/C322K/C336Q/R352C/R500C/M527D): T1 sequence (P20591 1-662 C42S/C52S/A149C/C322K/C336Q/M527D/S634C) with C149A, R352C, R500C, C634S
The experiment in a line: isothermal titration calorimetry. The settings on record: read-out: equilibrium dissociation constant. The test is classed as binding. On the procedure:
as §1

As for `Nc1nc(O)c2ncn([C@@H]3O[C@H](COP(=O)(O)OP(=O)(O)C[P+]([O-])(O)O)[C@@H](O)[C@H]3O)c2n1` [GMPPCP, guanosine-5′-[(β,γ)-methyleno]triphosphate], the Kd at MxA^MO2 [1] stood at 30 ± 0.003 µM; at MxA^MO2 [2], 14.7 ± 0.13 µM.
The like results for `Nc1nc2c(ncn2[C@@H]2O[C@H](COP(=O)(O)OP(=O)(O)O)[C@@H](O)[C@H]2O)c(=O)[nH]1` [GDP] were, in that order, 42.6 ± 0.14 µM and 26.3 ± 0.03 µM.
